Measurements from the NIST ThermoML archive (doi:10.1016/j.fluid.2016.03.016).

Test: mn = molality of the nth substance listed, in mol/kg
Conditions: 100 kPa, Liquid, Vibrating tube method

C[NH+]1CCCC1=O.O=C[O-] [N-methyl-2-oxopyrrolidinium formate] + O
mass density [kg/m3]
Conditions	288.15 K	298.15 K	308.15 K	318.15 K
m1 = 0.1	1000.87	998.697	995.571	991.633
m1 = 0.15	1001.64	999.401	996.217	992.225
m1 = 0.2	1002.42	1000.1	996.862	992.816
m1 = 0.25	1003.19	1000.81	997.508	993.408

CCC(=O)[O-].C[NH+]1CCCC1=O [N-methyl-2-oxopyrrolidinium propionate] + O
mass density [kg/m3]
Conditions	288.15 K	298.15 K	308.15 K	318.15 K
m1 = 0.1	1000.28	998.097	994.976	990.978
m1 = 0.15	1000.81	998.566	995.384	991.337
m1 = 0.2	1001.35	999.034	995.792	991.696
m1 = 0.25	1001.89	999.503	996.2	992.055

O=C[C@H](O)[C@@H](O)[C@H](O)[C@H](O)CO [D-glucose] + O
mass density [kg/m3]
Conditions	m1 = 0.04761	m1 = 0.08797	m1 = 0.09893	m1 = 0.1276	m1 = 0.1555	m1 = 0.1767	m1 = 0.2008
288.15 K	1002.39	1005.11	1005.85	–	1009.58	1010.96	1012.51
298.15 K	1000.27	1002.97	1003.7	1005.58	–	–	1010.31
308.15 K	997.256	999.92	1000.64	1002.5	1004.29	1005.64	–
318.15 K	993.41	996.056	996.767	998.624	1000.4	1001.75	1003.26

O=C[C@H](O)[C@@H](O)[C@H](O)CO [D-xylose] + O
mass density [kg/m3]
Conditions	m1 = 0.05973	m1 = 0.06763	m1 = 0.09347	m1 = 0.1376	m1 = 0.1501	m1 = 0.1698	m1 = 0.1873
288.15 K	1002.39	1002.82	1004.22	1006.58	1007.24	1008.28	1009.21
298.15 K	1000.28	1000.71	1002.09	1004.43	1005.09	1006.12	1007.03
308.15 K	997.274	997.695	999.067	1001.39	1002.04	1003.07	1003.97
318.15 K	993.436	993.851	995.213	997.518	998.164	999.183	1000.08

O [water] + O=C[C@H](O)[C@@H](O)[C@H](O)[C@H](O)CO
Conditions	mass density [kg/m3]
308.15 K, m2 = 0	994.063
